Data as given in patent publication US8895745B2, “Bicyclic heterocyclic compounds as FGFR inhibitors” (Astex Therapeutics Limited, priority 2006, dated 2014).
pIC50: −log10 of the molar value. Counter-ions that a name gives are not always drawn.

system: LP-1 cell line; test: Cell-based pERK ELISA method, LP-1 cells; conditions: Homo sapiens, LP-1, read-out: IC50 less than 1 μM or at least 50% inhibition at a concentration of 1 μM, LP-1 pERK ELISA
Experimental: LP-1 or JIM-1 multiple myeloma cells were seeded in 96 well plates at 1×10^6 cells/ml in 200 ul per well in serum free media. […] Cells were incubated for 16 h at 37° C. prior to the addition of a test compound for 30 minutes. Test compounds were administered at a 0.1% final DMSO concentration. […] ELISA plates and standards were prepared according o the standard DuoSet protocols and the relative amounts of pERK to total ERK in each sample calculated according to the standard curve.
In particular, compounds of the invention were tested against the LP-1 cell line (DSMZ no.: ACC 41) derived from human multiple myeloma.

pIC50, > 6.00:
CN1CCN(c2ccc(-c3ccn4c(-c5cccc(NC(=O)NCC(F)(F)F)c5)cnc4c3)cc2)CC1 [Example 245, 1-(3-{7-[4-(4-Methyl-piperazin-1-yl)-phenyl]-imidazo[1,2-a]pyridin-3-yl}-phenyl)-3-(2,2,2-trifluoro-ethyl)-urea Acetic acid]
CC(NC(=O)Nc1cccc(-c2cnc3cc(-c4ccc(F)cc4)ccn23)c1)C(F)(F)F (stereo not shown) [Example 246, 1-{3-[7-(4-Fluoro-phenyl)-imidazo[1,2-a]pyridin-3-yl]-phenyl}-3-(2,2,2-trifluoro-1-methyl-ethyl)-urea]
CNC(=O)c1cccc(-c2ccn3c(-c4cccc(NC(=O)NCC(F)(F)F)c4)cnc3c2)c1 [Example 247, N-Methyl-3-(3-{3-[3-(2,2,2-trifluoro-ethyl)-ureido]-phenyl}-imidazo[1,2-a]pyridin-7-yl)-benzemide Formate]
NS(=O)(=O)c1cccc(-c2ccn3c(-c4cccc(NC(=O)NCC(F)(F)F)c4)cnc3c2)c1 [Example 249, 3-(3-{3-[3-(2,2,2-Trifluoro-ethyl)-ureido]-phenyl}-imidazo[1,2-a]pyridin-7-yl)-benzene-sulfonamide formate]
O=C(NCC(F)(F)F)Nc1cccc(-c2cnc3cc(-c4cccc(C(=O)N5CCNCC5)c4)ccn23)c1 [Example 250, 1-(3-{7-[3-(Piperazine-1-carbonyl)-phenyl]-imidazo[1,2-a]pyridin-3-yl}-phenyl)-3-(2,2,2-trifluoro-ethyl)-urea hydrochloride]
CS(=O)(=O)c1cccc(-c2ccn3c(-c4cccc(NC(=O)NCC(F)(F)F)c4)cnc3c2)c1 [Example 251, 1-{3-[7-(3-Methane-sulfonyl-phenyl)-imidazo[1,2-a]pyridin-3-yl]-phenyl}-3-(2,2,2-trifluoro-ethyl)-urea formate]
O=C(NCC(F)(F)F)Nc1ccc(F)c(-c2cnc3cc(Cl)ccn23)c1 [Example 252, 1-[3-(7-Chloro-imidazo[1,2-a]pyridin-3-yl)-4-fluoro-phenyl]-3-(2,2,2-trifluoro-ethyl)-urea]
O=C(NCC(F)(F)F)Nc1ccc(F)c(-c2cnc3cc(-c4ccc(F)cc4)ccn23)c1 [Example 253, 1-{4-Fluoro-3-[7-(4-fluoro-phenyl)-imidazo[1,2-a]pyridin-3-yl]-phenyl}-3-(2,2,2-trifluoro-ethyl)-urea]
O=C(NCC(F)(F)F)Nc1cccc(-c2cnc3cc(-c4cc(F)cc(F)c4)ccn23)c1 [Example 254, 1-{3-[7-(3,5-Difluoro-phenyl)-imidazo[1,2-a]pyridin-3-yl]-phenyl}-3-(2,2,2-trifluoro-ethyl)-urea]
CCCn1cc(-c2ccn3c(-c4cccc(NC(=O)NCC(F)(F)F)c4)cnc3c2)cn1 [Example 256, 1-{3-[7-(1-Propyl-1H-pyrazol-4-yl)-imidazo[1,2-a]pyridin-3-yl]-phenyl}-3-(2,2,2-trifluoro-ethyl)-urea formate]
O=C(NCC(F)(F)F)Nc1cc(CO)cc(-c2cnc3cc(-c4ccc(F)cc4)ccn23)c1 [Example 258, 1-{3-[7-(4-Fluoro-phenyl)-imidazo[1,2-a]pyridin-3-yl]-5-hydroxymethyl-phenyl}-3-(2,2,2-trifluoro-ethyl)-urea]
CCc1nnc(-c2ccn3c(-c4cccc(NC(=O)NCC(F)(F)F)c4)cnc3c2)s1 [Example 260, 1-{3-[7-(5-Ethyl-[1,3,4]thiadiazol-2-yl)-imidazo[1,2-a]pyridin-3-yl]-phenyl}-3-(2,2,2-trifluoro-ethyl)-urea]
CCNC(=O)c1cccc(-c2ccn3c(-c4cccc(NC(=O)NCC(F)(F)F)c4)cnc3c2)c1 [Example 261, N-Ethyl-3-(3-{3-[3-(2,2,2-trifluoro-ethyl)-ureido]-phenyl}-imidazo[1,2-a]pyridin-7-yl)-benzamide Formate]
